Tested on: HaCaT cells
Assay: MTT cytotoxicity assay on human keratinocytes (skin irritation potential)
Type: cell-based
Conditions: two hours
Source text: To evaluate the skin irritation potential of compositions C and D (containing paraphenyldiamine) illustrated in example 1, an in vitro test was used, consisting of a cytotoxicity assay performed on a line of human keratinocytes (transformed human keratinocytes, HaCaT cells) that maintain full epidermal differentiation capability.
In this case, the goal of the test was to determine the effects of compositions C and D illustrated in Example 1 on the proliferation of keratinocytes through the cell vitality test, indirectly measured by MTT staining (Mossnam T, […], J. Immunol. Methods, 65:55-63).
The specimen comprising composition C or D was previously mixed with oxidant cream in the proportion 1:1.5 and left to act for 15 minutes. […]
The cells were treated for two hours to simulate the conditions of use of the dye. At the end of the two hours, the cells were subjected to the MTT test.
From this value, the irritant potential of composition C and composition D can be estimated. Negative control comprised no treatment, whereas the surfactant sodium lauryl sulphate (SLS), whose cytotoxicity is well known, was used as positive control. Each experiment was done in triplicate, on cells plated 24 hours previously.

CCCCCCCCCCCCOS(=O)(=O)[O-].[Na+] [SLS, sodium lauryl sulphate]
Cell vitality % (versus negative control) (Dose 0.03 mg/mL): 101.5% | Cell vitality % (versus negative control) (Dose 0.06 mg/mL): 109.7% | Cell vitality % (versus negative control) (Dose 0.12 mg/mL): 74.0% | Cell vitality % (versus negative control) (Dose 0.25 mg/mL): 3.4% | Cell vitality % (versus negative control) (Dose 0.5 mg/mL): 3.1% | IC50 (Homo sapiens, 2 h, concentration reducing cell vitality by 50% versus untreated cells, theoretical value from regression curve, MTT): 148 µg/mL

From EP2072037A1, “Hair dyeing compositions” (Farmen International Cosmetics Distribution S.p.A, priority 2007, dated 2009)
